Measurements reported in patent US20230002327A1, “SMALL-MOLECULE REGULATOR OF TLR8” (TSINGHUA UNIVERSITY, priority 2019, published 2023).

Assays:
[1] = tested on: R848-induced signaling pathway in human peripheral blood mononuclear cells; test: ELISA of TNF-α in R848-treated human peripheral blood mononuclear cells; assay type: cell-based; details: human peripheral blood mononuclear cells (FIG. 8)
Method: After 48 hours, suspending cells would adhere onto the surface of the 12-well plate, non-adhered cells and the medium were aspirated, and cells were washed with sterile […] buffer (3×1 mL). RPMI medium was added (1 mL/well), and R848 (1 μg/mL) and various concentrations of Compound 24 or Compound 10 (as a negative control) were further added to treat cells. Or, the same amount of peripheral blood mononuclear cells derived from healthy human were used instead of THP-1 cells for subsequent experiments.
After 24 hours, the supernatant of the medium was collected and stored in a freezer at −80° C. Cells were washed with PBS (3×1 mL), the 12-well plate was placed on ice, and then 400 μL of lysis buffer (containing protease inhibitor) was added to each well, during which the cells were pipetted every five minutes. After 20 minutes, the mixture was transferred to the corresponding 1.5-mL tube and centrifuged at 13.2K rpm and 4° C. for 20 minutes. 350 μL of the supernatant was collected into a new centrifuge tube and frozen at −80° C.
Cytokines interleukin-1β(IL-1β), interleukin-6 (IL-6) and tumor necrosis factor (TNF-α) were quantified by enzyme-linked immunosorbent assay (ELISA) according to the instructions of the kit provided by the manufacturer.

[2] = tested on: peripheral blood mononuclear cells of patients suffering from rheumatoid arthritis; test: TNF-α in PBMC of rheumatoid arthritis patients; assay type: cell-based, human; details: PBMC derived from rheumatoid arthritis patients (FIG. 9)
Method: Approximately 8 mL of blood was collected from untreated rheumatoid arthritis patients.
Peripheral blood mononuclear cells (PBMCs) were isolated from the whole blood derived from 6 rheumatoid arthritis patients using the lymphocyte separation medium, and the cells were seeded in a 96-well round-bottom plate at a density of 1×10^6 cells/mL immediately after the isolation (cultured in RPMI 1640 (0.25 mL/well)).
Afterwards, cells were treated with 0, 10, 20, 40 and 80 μM Compound 24, Compound 10 was used as a negative control, and cells were placed in a cell incubator (37° C., 5% CO2) for incubation.
After 24 hours, the resultant was centrifuged at 4,000 rpm/minute for 10 minutes, and then the supernatant was collected, frozen to −80° C. and used for the determination of TNF-α. Quantification was conducted using a human TNF ELISA Kit.

In the case of `OCCCc1nnc(S)n1-c1ccc(Cl)cc1Cl` [Compound 10, 3-(4-(2,4-dichlorophenyl)-5-mercapto-4H-1,2,4-triazole-3-yl)propan-1-ol], the “inhibitory effect on inflammatory factor TNF-α” value [1] is reported as “did not exert inhibitory effect” and the “inhibitory effect on inflammatory factor TNF-α” value [2] is reported as “did not show such effect”.
